Test results: patent publication US10028992B2, “Methods of treating muscular dystrophy” (BOARD OF REGENTS OF THE NEVADA SYSTEM OF HIGHER EDUCATION …, priority 2012, dated 2018)
Blank lines part the entries; values can stand above or below the compound they belong to.

System: α7 integrin promoter
Experiment: muscle cell-based assay: α7βgal+/− myoblasts/myotubes, LacZ reporter, β-galactosidase cleavage of FDG
Set-up: species or system mouse; Results in α7+/− β-galactosidase assay: scale not given here
Settings: for Results in a α7+/− β-galactosidase assay, Myotubes, 0.5 uM: compound at 0.5 uM; for Results in a α7+/− β-galactosidase assay, Myotubes, 1 uM: compound at 1 uM; for Results in a α7+/− β-galactosidase assay, Myotubes, 5 uM: compound at 5 uM; for Results in a α7+/− β-galactosidase assay, Myotubes, 10 uM: compound at 10 uM; for Results in a α7+/− β-galactosidase assay, Myotubes, 20 uM: compound at 20 uM; for Results in a α7+/− β-galactosidase assay, Myotubes, 40 uM: compound at 40 uM; for EC50: given as log AC50 (negative values), read-out: Fit LogAC50 (converted); for Fit Curve Class: key not given; for Result in α7+/− β-galactosidase assay / Results in α7+/− β-galactosidase assay: Myoblasts; for AC50: log of AC50, given with negative sign, unit of AC50 not given, read-out: Fit Log AC50 (converted)
Description: An α7 integrin null mouse was produced in which exon 1 of the gene encoding the α7 integrin was replaced by the LacZ reporter. In these mice, all the transcriptional regulatory elements of the α7 integrin promoter were retained, allowing β-galactosidase to report expression of 7 integrin. A primary myoblast cell line (designated α7βgal^+/−) isolated from 10 day old α7^+/− pups were analyzed for the ability of β-galactosidase to report α7 integrin expression. α7βgal^+/− myoblasts were differentiated and subjected to X-gal staining and western analysis (FIGS. 1A and 1B).
The activity of the α7 integrin promoter was measured by β-galactosidase cleavage of the non-fluorescent compound fluorescein di-β-D-galactopyranoside (FDG) to fluorescein. This assay was used to screen compound libraries to identify molecules that up-regulate α7 integrin expression in muscle.
Also evaluated was the effect of various isoforms of laminin and the ligand for α7β1 integrin on integrin expression. Positive hits were subjected to dose-response analysis, western analysis and a myostatin counterscreen (a negative regulator of muscle growth).

[1] = curve fit, activity at zero concentration
[2] = Table 12, fitted activity at zero concentration
[3] = Table 12 Compound data, concentration-response curve fit

Structure (SMILES): CN1CCN(c2ccccc2/C=C2\C(=O)Nc3ccccc32)CC1 [drawing 463]
Results in a α7+/− β-galactosidase assay, Myotubes, 0.5 uM: 0.01535
Results in a α7+/− β-galactosidase assay, Myotubes, 1 uM: 0.02095
Results in a α7+/− β-galactosidase assay, Myotubes, 5 uM: −0.163
Results in a α7+/− β-galactosidase assay, Myotubes, 10 uM: −0.162
Results in a α7+/− β-galactosidase assay, Myotubes, 20 uM: −0.1247
Results in a α7+/− β-galactosidase assay, Myotubes, 40 uM: −0.07473

Structure (SMILES): COc1ccccc1C(=O)OCc1ccc2sc(C)nc2c1 [drawing 378]
Results in a α7+/− β-galactosidase assay, Myotubes, 0.5 uM: −0.04468
Results in a α7+/− β-galactosidase assay, Myotubes, 1 uM: 0.06534
Results in a α7+/− β-galactosidase assay, Myotubes, 5 uM: 0.05342
Results in a α7+/− β-galactosidase assay, Myotubes, 10 uM: −0.1134
Results in a α7+/− β-galactosidase assay, Myotubes, 20 uM: −0.02544
Results in a α7+/− β-galactosidase assay, Myotubes, 40 uM: −0.1114

Structure (SMILES): COc1ccc(OC)c(NC(=O)CN2CCC(NC(=O)c3ccccc3C)CC2)c1 [drawing 366]
Results in a α7+/− β-galactosidase assay, Myotubes, 0.5 uM: 0.003237
Results in a α7+/− β-galactosidase assay, Myotubes, 1 uM: 0.04584
Results in a α7+/− β-galactosidase assay, Myotubes, 5 uM: −0.09583
Results in a α7+/− β-galactosidase assay, Myotubes, 10 uM: −0.1153
Results in a α7+/− β-galactosidase assay, Myotubes, 20 uM: −0.1579
Results in a α7+/− β-galactosidase assay, Myotubes, 40 uM: −0.08927

Structure (SMILES): COc1ccccc1/C=C1\C(=O)Nc2ccccc21 [drawing 492]
Results in a α7+/− β-galactosidase assay, Myotubes, 0.5 uM: −0.03334
Results in a α7+/− β-galactosidase assay, Myotubes, 1 uM: 0.08625
Results in a α7+/− β-galactosidase assay, Myotubes, 5 uM: −0.2626
Results in a α7+/− β-galactosidase assay, Myotubes, 10 uM: 0.09022
Results in a α7+/− β-galactosidase assay, Myotubes, 20 uM: −0.05273
Results in a α7+/− β-galactosidase assay, Myotubes, 40 uM: 0.2894

EC50 (Mus musculus): 11.2 µM
Structure (SMILES): CC(=O)Nc1ccc(NC(=O)c2cc(=O)c3cc(C)cc(C)c3o2)cc1 [Compound 159]
Score (Table 12 compound data): 42
Fit Curve Class (curve class number): 2.1
Fit HillSlope (curve fit): 4.095
Fit Zero Activity [%] [1]: −2.9033%

Structure (SMILES): COc1c(Cl)cc(/C=C2\C(=O)Nc3ccccc32)cc1Cl [drawing 712]
Result in α7+/− β-galactosidase assay (0.5 uM): 0.2725
Result in α7+/− β-galactosidase assay (1 uM): 0.2417
Result in α7+/− β-galactosidase assay (5 uM): 0.01335
Result in α7+/− β-galactosidase assay (10 uM): 0.04886
Result in α7+/− β-galactosidase assay (20 uM): 0.1098
Result in α7+/− β-galactosidase assay (40 uM): −0.01132

Structure (SMILES): CC(C)Oc1cccc(C(=O)Nc2ccc(CN3CCOCC3)cc2)c1 [drawing 355]
Results in a α7+/− β-galactosidase assay, Myotubes, 0.5 uM: −0.02164
Results in a α7+/− β-galactosidase assay, Myotubes, 1 uM: −0.1398
Results in a α7+/− β-galactosidase assay, Myotubes, 5 uM: 0.1741
Results in a α7+/− β-galactosidase assay, Myotubes, 10 uM: 0.1947
Results in a α7+/− β-galactosidase assay, Myotubes, 20 uM: −0.2357
Results in a α7+/− β-galactosidase assay, Myotubes, 40 uM: −0.1159

EC50 (Mus musculus): 11.2 µM
Structure (SMILES): Nc1nccc(-c2ccc(-n3cnc4ccccc43)cc2)n1 [Compound 192]
Score (Table 12 compound data): 42
Fit Curve Class (curve class number): 2.2
Fit HillSlope (curve fit): 4.095
Fit Zero Activity [%] [1]: 2.4789%

Structure (SMILES): O=C(CNC(=O)c1cccc(F)c1)N/N=C/c1cc(Br)ccc1OCc1ccccc1 [drawing 519]
Results in α7+/− β-galactosidase assay (0.5 uM): −0.00993
Results in α7+/− β-galactosidase assay (1 uM): 0.03356
Results in α7+/− β-galactosidase assay (5 uM): 0.1316
Results in α7+/− β-galactosidase assay (10 uM): 0.088
Results in α7+/− β-galactosidase assay (20 uM): −0.1376
Results in α7+/− β-galactosidase assay (40 uM): 0.1351

Structure (SMILES): CSc1ccc(S(=O)(=O)NCc2ccccc2)cc1 [drawing 590]
Results in α7+/− β-galactosidase assay (0.5 uM): −0.1174
Results in α7+/− β-galactosidase assay (1 uM): −0.07696
Results in α7+/− β-galactosidase assay (5 uM): 0.06657
Results in α7+/− β-galactosidase assay (10 uM): 0.6252
Results in α7+/− β-galactosidase assay (20 uM): 0.01406
Results in α7+/− β-galactosidase assay (40 uM): −0.1992

Structure (SMILES): CS(=O)(=O)N(Cc1ccc(C(=O)NC2CCCC2)cc1)c1ccccc1 [Compound 63]
AC50 (Mus musculus, Table 12): 10 µM
Fit HillSlope (Table 12, curve fit): 3.1925
Fit Zero Activity [%] [2]: −1.7425%
Fit Curve Class (Table 12): 2.1
Score [3]: 45

Structure (SMILES): Cc1ccc(NCc2nnc(SCC(=O)Nc3nnc(C)s3)n2C)cc1 [Compound 51]
AC50 (Mus musculus, Table 12): 10 µM
Emax (Mus musculus, read-out: Max Response [%]): 249%
Fit HillSlope (Table 12, curve fit): 4.9549
Fit Zero Activity [%] [2]: −23.8252%
Fit Curve Class (Table 12): 2.1
Score [3]: 46

Structure (SMILES): CCO/C(C)=C1\C(=O)Nc2ccccc21 [drawing 497]
Results in a α7+/− β-galactosidase assay, Myotubes, 0.5 uM: −0.1394
Results in a α7+/− β-galactosidase assay, Myotubes, 1 uM: 0.0259
Results in a α7+/− β-galactosidase assay, Myotubes, 5 uM: −0.3175
Results in a α7+/− β-galactosidase assay, Myotubes, 10 uM: −0.219
Results in a α7+/− β-galactosidase assay, Myotubes, 20 uM: −0.1574
Results in a α7+/− β-galactosidase assay, Myotubes, 40 uM: 0.04819
